{
  "source": "patent US8637550B2",
  "about": "“Heteroaryl diamide compounds useful as MMP-13 inhibitors” (Boehringer Ingelheim International GmbH, priority 2008, dated 2014)",
  "data": [
    {"biological_target": "MMP-13 (Homo sapiens, UniProt P45452)", "experiment": "EnzoLyte 520 Generic MMP Assay Kit, 5-FAM/QXL520 FRET peptide substrate", "assay_type": "biochemical", "source_text": "The EnzoLyte™ 520 Generic MMP Assay Kit (AnaSpec Inc.) can detect the activity of several MMPs including MMP-1, 2, 3, 7, 8, 9, 13, and 14. This kit uses a 5-FAM/QXL™520 fluorescence resonance energy transfer (FRET) peptide as an MMP substrate.", "units": {"IC50": "µM"}, "values": [
      {"smiles": "CC[C@H](C)[C@H](NC(=O)c1ccc(-c2ccc(Cl)cc2)o1)C(=O)NC", "note": "[5-(4-Chloro-phenyl)-furan-2-carboxylic acid ((1S,2S)-2-methyl-1-methylcarbamoyl-butyl)-amide]", "IC50": 0.3},
      {"smiles": "CNC(=O)[C@@H](NC(=O)c1ccc(-c2ccc(Cl)cc2)o1)C1CCCC1", "note": "[5-(4-Chlorophenyl)-N-[(1S)-1-cyclopentyl-2-(methylamino)-2-oxoethyl]furan-2-carboxamide]", "IC50": 0.465},
      {"smiles": "CNC(=O)[C@@H](NC(=O)c1ccc(-c2ccc(Cl)cc2)o1)C1CCNCC1", "note": "[5-(4-Chlorophenyl)-N-[(1S)-2-(methylamino)-2-oxo-1-(piperidin-4-yl)ethyl]furan-2-carboxamide]", "IC50": 0.43},
      {"smiles": "CNC(=O)[C@@H](NC(=O)c1ccc(-c2ccc(Cl)cc2)o1)C1CCCCC1", "note": "[5-(4-chlorophenyl)-N-[(1S)-1-cyclohexyl-2-(methylamino)-2-oxoethyl]furan-2-carboxamide]", "IC50": 0.475},
      {"smiles": "CCNC(=O)[C@@H](NC(=O)c1ccc(-c2ccc(C#N)cc2)o1)C1CCCCC1", "note": "[5-(4-cyanophenyl)-N-[(1S)-1-cyclohexyl-2-(ethylamino)-2-oxoethyl]furan-2-carboxamide]", "IC50": 0.295},
      {"smiles": "CNC(=O)[C@@H](NC(=O)c1ccc(-c2ccc(C#N)cc2)o1)C1CCCCC1", "note": "[5-(4-cyanophenyl)-N-[(1S)-1-cyclohexyl-2-(methylamino)-2-oxoethyl]furan-2-carboxamide]", "IC50": 0.175},
      {"smiles": "C[C@@H](CO)NC(=O)[C@@H](NC(=O)c1ccc(-c2ccc(C#N)cc2)o1)C1CCCCC1", "note": "[5-(4-cyanophenyl)-N-[(1S)-1-cyclohexyl-2-{[(2S)-1-hydroxypropan-2-yl]amino}-2-oxoethyl]furan-2-carboxamide]", "IC50": 0.195},
      {"smiles": "COC[C@H](C)NC(=O)[C@@H](NC(=O)c1ccc(-c2ccc(C#N)cc2)o1)C1CCCCC1", "note": "[5-(4-cyanophenyl)-N-[(1S)-1-cyclohexyl-2-{[(2S)-1-methoxypropan-2-yl]amino}-2-oxoethyl]furan-2-carboxamide]", "IC50": 0.195},
      {"smiles": "CNC(=O)[C@@H](NC(=O)c1ccc(-c2ccc(C#N)cc2)o1)C1CCOCC1", "note": "[5-(4-cyanophenyl)-N-[(1S)-2-(methylamino)-2-oxo-1-(tetrahydro-2H-pyran-4-yl)ethyl]furan-2-carboxamide]", "IC50": 0.09},
      {"smiles": "N#Cc1ccc(-c2ccc(C(=O)N[C@H](C(=O)NCCO)C3CCCCC3)o2)cc1", "note": "[5-(4-cyanophenyl)-N-{(1S)-1-cyclohexyl-2-[(2-hydroxyethyl)amino]-2-oxoethyl}furan-2-carboxamide]", "IC50": 0.1},
      {"smiles": "CC(O)CNC(=O)[C@@H](NC(=O)c1ccc(-c2ccc(C#N)cc2)o1)C1CCCCC1", "note": "(stereo partly drawn) [5-(4-cyanophenyl)-N-{(1S)-1-cyclohexyl-2-[(2-hydroxypropyl)amino]-2-oxoethyl}furan-2-carboxamide]", "IC50": 0.17},
      {"smiles": "COCCNC(=O)[C@@H](NC(=O)c1ccc(-c2ccc(C#N)cc2)o1)C1CCCCC1", "note": "[5-(4-cyanophenyl)-N-{(1S)-1-cyclohexyl-2-[(2-methoxyethyl)amino]-2-oxoethyl}furan-2-carboxamide]", "IC50": 0.074},
      {"smiles": "CNC(=O)[C@@H](NC(=O)c1ccc(-c2ccc(-c3ccc(C(F)(F)F)cc3)cc2)o1)C1CCCCC1", "note": "[5-(4′-Trifluoromethyl-biphenyl-4-yl)-furan-2-carboxylic acid ((S)-cyclohexyl-methylcarbamoyl-methyl)-amide]", "IC50": 0.373},
      {"smiles": "CNC(=O)[C@@H](NC(=O)c1ccc(-c2ccc(OCc3ccccc3)cn2)o1)C(C)(C)O", "note": "[5-(5-Benzyloxy-pyridin-2-yl)-furan-2-carboxylic acid ((S)-2-hydroxy-2-methyl-1-methylcarbamoyl-propyl)-amide]", "IC50": 0.018},
      {"smiles": "CNC(=O)[C@@H](NC(=O)c1ccc(-c2ccc(OCc3ccccc3)cn2)o1)C(C)C", "note": "[5-(5-Benzyloxy-pyridin-2-yl)-furan-2-carboxylic acid ((S)-2-methyl-1-methylcarbamoyl-propyl)-amide]", "IC50": 0.018},
      {"smiles": "CNC(=O)[C@@H](NC(=O)c1ccc(-c2ccc(Cl)cn2)o1)C1CCCCC1", "note": "[5-(5-Chloropyridin-2-yl)-N-[(1S)-1-cyclohexyl-2-(methylamino)-2-oxoethyl]furan-2-carboxamide]", "IC50": 0.245},
      {"smiles": "CNC(=O)[C@@H](NC(=O)c1ccc(-c2ccc(C#N)cn2)o1)C1CCCCC1", "note": "[5-(5-Cyanopyridin-2-yl)-N-[(1S)-1-cyclohexyl-2-(methylamino)-2-oxoethyl]furan-2-carboxamide]", "IC50": 0.069},
      {"smiles": "CNC(=O)[C@@H](NC(=O)c1ccc(-c2ccc(-c3ccccc3)cn2)o1)C(C)C", "note": "[5-(5-Phenyl-pyridin-2-yl)-furan-2-carboxylic acid ((S)-2-methyl-1-methylcarbamoyl-propyl)-amide]", "IC50": 0.079},
      {"smiles": "CNC(=O)[C@@H](NC(=O)c1ccc(-c2cccc(CNC(=O)c3cc(Br)n(C)n3)c2)o1)C(C)C", "note": "[5-Bromo-1-methyl-1H-pyrazole-3-carboxylic acid 3-[5-((S)-2-methyl-1-methylcarbamoyl-propylcarbamoyl)-furan-2-yl]-benzylamide]", "IC50": 0.013},
      {"smiles": "CNC(=O)[C@@H](NC(=O)c1ccc(-c2ccc(NC(=O)c3cn4c(C#N)cccc4n3)cc2)o1)C1CCCCC1", "note": "[5-Cyano-N-[4-(5-{[(1S)-1-cyclohexyl-2-(methylamino)-2-oxoethyl]carbamoyl}furan-2-yl)phenyl]imidazo[1,2-a]pyridine-2-carboxamide]", "IC50": 0.103},
      {"smiles": "CNC(=O)[C@@H](NC(=O)c1ccc(-c2cccc(CNC(=O)c3cc(C(F)(F)F)n[nH]3)c2)o1)C(C)C", "note": "[5-Trifluoromethyl-2H-pyrazole-3-carboxylic acid 3-[5-((S)-2-methyl-1-methylcarbamoyl-propylcarbamoyl)-furan-2-yl]-benzylamide]", "IC50": 0.16},
      {"smiles": "CNC(=O)[C@@H](NC(=O)c1ccc(-c2ccc(-c3cccnc3)cn2)o1)C(C)C", "note": "[5-[3,3′]Bipyridinyl-6-yl-furan-2-carboxylic acid ((S)-2-methyl-1-methylcarbamoyl-propyl)-amide]", "IC50": 0.14},
      {"smiles": "CNC(=O)[C@@H](NC(=O)c1ccc(-c2ccc(-c3ccncc3)cn2)o1)C(C)C", "note": "[5-[3,4′]Bipyridinyl-6-yl-furan-2-carboxylic acid ((S)-2-methyl-1-methylcarbamoyl-propyl)-amide]", "IC50": 0.062},
      {"smiles": "CNC(=O)[C@@H](NC(=O)c1ccc(-c2ccc(-c3ccncc3)cn2)o1)C1CCCCC1", "note": "[5-[3,4′]Bipyridinyl-6-yl-furan-2-carboxylic acid ((S)-cyclohexyl-methylcarbamoyl-methyl)-amide]", "IC50": 0.023},
      {"smiles": "CNC(=O)[C@@H](NC(=O)c1ccc(-c2cccc(CN)c2)o1)C1CCOCC1", "note": "[5-[3-(Aminomethyl)phenyl]-N-[(1S)-2-(methylamino)-2-oxo-1-(tetrahydro-2H-pyran-4-yl)ethyl]-2-furamide]", "IC50": 0.415},
      {"smiles": "CNC(=O)[C@@H](NC(=O)c1ccc(-c2cccc(CNC(=O)c3ccccc3)c2)o1)C(C)C", "note": "[5-[3-(Benzoylamino-methyl)-phenyl]-furan-2-carboxylic acid ((S)-2-methyl-1-methylcarbamoyl-propyl)-amide]", "IC50": 0.205},
      {"smiles": "CNC(=O)[C@@H](NC(=O)c1ccc(-c2ccc(OCc3cc(C)nn3C)cc2)o1)C1CCCCC1", "note": "[5-[4-(2,5-Dimethyl-2H-pyrazol-3-ylmethoxy)-phenyl]-furan-2-carboxylic acid ((S)-cyclohexyl-methylcarbamoyl-methyl)-amide]", "IC50": 0.006},
      {"smiles": "CNC(=O)[C@@H](NC(=O)c1ccc(-c2ccc(OCc3[nH]cnc3C)cc2)o1)C1CCOCC1", "note": "[5-[4-(5-Methyl-3H-imidazol-4-ylmethoxy)-phenyl]-furan-2-carboxylic acid [(S)-methylcarbamoyl-(tetrahydro-pyran-4-yl)-methyl]-amide]", "IC50": 0.027},
      {"smiles": "CNC(=O)[C@@H](NC(=O)c1ccc(-c2ccc(OCc3cc(C)n(C)n3)cn2)o1)C(C)C", "note": "[5-[5-(1,5-Dimethyl-1H-pyrazol-3-ylmethoxy)-pyridin-2-yl]-furan-2-carboxylic acid ((S)-2-methyl-1-methylcarbamoyl-propyl)-amide]", "IC50": 0.08},
      {"smiles": "CNC(=O)[C@@H](NC(=O)c1ccc(-c2ccc(OCc3cc4ccccc4o3)cn2)o1)C1CCCCC1", "note": "[5-[5-(1-Benzofuran-2-ylmethoxy)pyridin-2-yl]-N-[(1S)-1-cyclohexyl-2-(methylamino)-2-oxoethyl]furan-2-carboxamide]", "IC50": 0.006},
      {"smiles": "CNC(=O)[C@@H](NC(=O)c1ccc(-c2ccc(-c3ccc4[nH]ccc4c3)cn2)o1)C(C)C", "note": "[5-[5-(1H-Indol-5-yl)-pyridin-2-yl]-furan-2-carboxylic acid ((S)-2-methyl-1-methylcarbamoyl-propyl)-amide]", "IC50": 0.26},
      {"smiles": "CNC(=O)[C@@H](NC(=O)c1ccc(-c2ccc(-c3ccc4cc[nH]c4c3)cn2)o1)C(C)C", "note": "[5-[5-(1H-Indol-6-yl)-pyridin-2-yl]-furan-2-carboxylic acid ((S)-2-methyl-1-methylcarbamoyl-propyl)-amide]", "IC50": 0.091},
      {"smiles": "CNC(=O)[C@@H](NC(=O)c1ccc(-c2ccc(OCc3cc(C)nn3C)cn2)o1)C1CCCCC1", "note": "[5-[5-(2,5-Dimethyl-2H-pyrazol-3-ylmethoxy)-pyridin-2-yl]-furan-2-carboxylic acid ((S)-cyclohexyl-methylcarbamoyl-methyl)-amide]", "IC50": 0.002},
      {"smiles": "CNC(=O)[C@@H](NC(=O)c1ccc(-c2ccc(-c3cnc(N)nc3)cn2)o1)C(C)C", "note": "[5-[5-(2-Amino-pyrimidin-5-yl)-pyridin-2-yl]-furan-2-carboxylic acid ((S)-2-methyl-1-methylcarbamoyl-propyl)-amide]", "IC50": 0.38},
      {"smiles": "CNC(=O)[C@@H](NC(=O)c1ccc(-c2ccc(-c3cc(F)cc(F)c3)cn2)o1)C(C)C", "note": "[5-[5-(3,5-Difluoro-phenyl)-pyridin-2-yl]-furan-2-carboxylic acid ((S)-2-methyl-1-methylcarbamoyl-propyl)-amide]", "IC50": 0.37},
      {"smiles": "CNC(=O)[C@@H](NC(=O)c1ccc(-c2ccc(-c3cccc(F)c3)cn2)o1)C(C)C", "note": "[5-[5-(3-Fluoro-phenyl)-pyridin-2-yl]-furan-2-carboxylic acid ((S)-2-methyl-1-methylcarbamoyl-propyl)-amide]", "IC50": 0.325},
      {"smiles": "CNC(=O)[C@@H](NC(=O)c1ccc(-c2ccc(-c3ccc(C#N)cc3)cn2)o1)C(C)C", "note": "[5-[5-(4-Cyano-phenyl)-pyridin-2-yl]-furan-2-carboxylic acid ((S)-2-methyl-1-methylcarbamoyl-propyl)-amide]", "IC50": 0.022}
    ]}
  ]
}
